Several values for one entry are separate records, joined by “and”; a condition that tells them apart may be missing. Identical values can stand only once.
Tests used:
α1β2γ2L GABAAR [1] = molecular target: T1, α1β2γ2L GABAAR (Rattus norvegicus, UniProt P18508+P62813+P63138, INS375LLRMFSFK); test: Direct activation, two-electrode voltage clamp in Xenopus oocytes; assay type: cell-based; conditions: 50 μM α7-PAM; n=5 oocytes/drug; mean±SEM
α1β2γ2L GABAAR [2] = molecular target: T1, α1β2γ2L GABAAR; test: Modulation of steady-state response to saturating GABA, Xenopus oocytes; assay type: cell-based; conditions: 50 μM α7-PAM; 1 mM GABA
α1β3γ2L GABAAR = α1β3γ2L GABAAR (Homo sapiens, UniProt P14867+P18507+P28472); assay type: binding
α1β2γ2L GABAAR [3] = molecular target: T1, α1β2γ2L GABAAR; test: Drug combination; assay type: cell-based
α1β2γ2L GABAAR [4] = molecular target: T1, α1β2γ2L GABAAR; assay type: cell-based
α1β2γ2L GABAAR [5] = molecular target: T1, α1β2γ2L GABAAR; test: Potentiation of receptors activated by allosteric agonists; assay type: cell-based
[6] = c 0.804, KR,PNU-120596 constrained to 10 μM
[7] = c 0.804, KR,PNU-120596 constrained to 50 μM
[8] = c 0.804, KR,PNU-120596 constrained to 100 μM

Structure (SMILES): COc1cc(OC)c(NC(=O)Nc2cc(C)on2)cc1Cl [PNU-120596, N-(5-Cl-2,4-dimethoxyphenyl)-N’-(5-methyl-3-isoxazolyl)-urea]
- direct activation: response as % of the peak response to 1 mM GABA+50 μM propofol (α1β2γ2L GABAAR [1]): 0.38±0.09%
- steady-state response to saturating GABA in presence of α7-PAM (% of control) (α1β2γ2L GABAAR [2]): 90±2 % of control
- shift in GABA F/Fo curves (α1β3γ2L GABAAR; 3-10 μM α7-PAM): Leftward shift
- direct effect on fluorescence from α1β3γ2L-bound Gzn-OG (orthosteric site) (α1β3γ2L GABAAR; 3-100 μM α7-PAM, no GABA): do not modify fluorescence
- PA of response to low GABA+NS-1738 with PNU-120596 coapplied (α1β2γ2L GABAAR [3]; 0.1-0.5 μM GABA+10 μM NS-1738+50 μM PNU-120596, 5 oocytes): 0.074±0.024
- predicted PA for GABA+NS-1738+PNU-120596, distinct site model (α1β2γ2L GABAAR [3]; [6]): 0.114
- predicted PA for GABA+NS-1738+PNU-120596, same site model (α1β2γ2L GABAAR [3]; [6]): 0.047
- predicted PA for GABA+NS-1738+PNU-120596, distinct site model (α1β2γ2L GABAAR [3]; [7]): 0.103
- predicted PA for GABA+NS-1738+PNU-120596, same site model (α1β2γ2L GABAAR [3]; [7]): 0.065
- predicted PA for GABA+NS-1738+PNU-120596, distinct site model (α1β2γ2L GABAAR [3]; [8]): 0.097
- predicted PA for GABA+NS-1738+PNU-120596, same site model (α1β2γ2L GABAAR [3]; [8]): 0.073
- potentiation of the response to low GABA (% of control) (α1β2γ2L GABAAR [4]; 50 μM α7-PAM, 2-5 μM GABA (PA<0.10), 100% = no effect, mean±SEM): 133±11 % of control
- free energy change (ΔG) towards stabilizing the active state (α1β2γ2L GABAAR [4]; co-agonist concerted transition model): -0.26 ± 0.04 kcal/mol and -0.26 kcal/mol
- potentiation EC50 (Hill equation) (α1β2γ2L GABAAR [4]; coapplied with low GABA (PA=0.05-0.13)): the fits did not converge

Structure (SMILES): CCOC(=O)c1cncn1[C@H](C)c1ccccc1 [R(+)-etomidate, R-1-(1-ethylphenyl)imidazole-5-ethyl ester]
- PA of response to R(+)-etomidate alone (α1β2γ2L GABAAR [5]; 2-4 μM R(+)-etomidate): 0.053±0.015 and 0.041±0.013

Structure (SMILES): CC(C)c1cccc(C(C)C)c1O [propofol]
- PA of currents elicited by propofol alone (α1β2γ2L GABAAR [5]; 10 μM propofol): 0.06-0.07
